Measured values: patent publication US20070259837A1, “Use of Non-Glucocorticoid Steroids for the Treatment of Muscular Dystrophy” (SANTHERA PHARMACEUTICALS (SCHWEIZ) AG, priority 2004, published 2007)
Where two headings read alike, the source gives them in different places.

Tested on: utrophin protein in human muscle cells derived from DMD patients
Assay: Cell-based ELISA for normalized utrophin protein level in primary human myotube cultures
Conditions: for % UTR vs. PDN (normalized utrophin protein as % of PDN-treated sister cultures): same experiment; for activity at 0.5 µM: Myotube, read-out: % UTR vs. DMSO (normalized utrophin protein over DMSO-solvent treated control)
Experimental: The method used to detect and determine utrophin-inducing activity of non-glucocorticoid steroids has been described previously (Courdier-Fruh, I., Barman, L., Briguet, A. & Meier, T.; 2002, Neuromuscul. Disord.; 12 Suppl:S95). Briefly, primary human muscle cell cultures were prepared according to standard protocols (Askanas V, Kwan H, Alvarez R B, Engel W K, Kobayashi T, Martinuzzi A, Hawkins E F., 1987, J Neurocytol., 16:523-537). Test compounds and the glucocorticoid 6α-methylprednisolone-21 sodium succinate (Pharmacia & Upjohn; Solu-Medrol®, PDN) as reference compound were applied at 500 nM final concentration as soon as myoblasts started to differentiate into myotubes. Incubation with the test compound was ended as soon as well differentiated myotubes have formed, typically resulting in an incubation time with a test compound for 3-7 days.
Normalized concentrations of utrophin protein in human muscle cells cultured in microtiter plates were determined by a cell-based enzyme-linked immunosorbent assay (ELISA) procedure that allows a successive readout for the cell density and utrophin protein level. For calibration, the cell density and differentiation was determined by absorbance measurements of the total dehydrogenase enzyme activity in each well using the colorimetric CellTiter 96®AQ One Solution Reagent Proliferation Assay (Promega) according to the manufacturer's recommendation. Subsequently, cells were fixed, washed, permeabilized with 0.5% (v/v) Triton X-100 and unspecific antibody binding-sites were blocked by standard procedures. Utrophin protein levels were determined immunologically with utrophin-specific primary antibodies (mouse monoclonal antibody to the amino terminal portion of utrophin, NCL-DRP2, Novocastra Laboratories) and with appropriate peroxidase-coupled secondary antibodies using QuantaBlu™ Fluorogenic Peroxidase Substrate Kit (Pierce) for detection. Fluorescence measurements were carried out with a multilabel counter (Wallac) at λex=325 nm and at λem=420 nm. The primary readout of this signal is presented in arbitrary units. For calibration, the arbitrary units representing the relative utrophin protein content of each well were divided by the corresponding cell-titer absorbance value to correct for cell density. For comparison between experiments, the cell-titer corrected readout for utrophin protein content in each well was expressed in percent of solvent treated control cultures (set to 100%). PDN was included in all experiments as reference glucocorticoid, N=3-5 for each compound tested.
Non-glucocorticoid test compounds, applied in a concentration of 500 nM, were regarded as “positive” in case the increase in the level of utrophin protein was at least 20% (mean value) over control cultures treated with the appropriate dilution of DMSO solvent as control and containing no test compound.
A range of different pharmaceutical compounds were tested for their ability to increase levels of utrophin protein in primary human myotube cultures. The cell-based ELISA protocol used to detect the level of utrophin protein is provided above and described in Courdier-Fruh, I., Barman, L., Briguet, A. & Meier, T, 2002, Neuromuscul. Disord.: 12, Suppl:S95. Briefly, fixed and permeabilized human muscle cells derived from DMD patients and cultured in 96-well cell culture plates were incubated with antibodies specific for utrophin at a dilution of 1:1'000 in blocking solution (phosphate buffered saline (PBS) supplemented with 2% fetal calf serum and 1% bovine serum albumin) for 10-15 hours at 4° C. Following several washing steps with 0.1% Triton X-100 in PBS, peroxidase-coupled secondary antibodies diluted 1:3'000 in blocking solution were applied in each well for 1-2 hours at room temperature. Signal detection, data acquisition and normalization was performed as described above and in Courdier-Fruh, I., Barman, L., Briguet, A. & Meier, T, 2002, Neuromuscul. Disord.: 12, Suppl:S95. […]

[1] = 500 nM compound, human muscle cultures, mean value, N=3-6

SMILES | % UTR vs. PDN (normalized utrophin protein as % of PDN-treated sister cultures) [1] [%] | activity at 0.5 µM [1] [%] | activity at 0.5 µM (Homo sapiens) [%] | inhibition of CDCA-mediated utrophin increase by glucocorticoid receptor antagonist RU38486 (500 nM CDCA + 500 nM RU38486 simultaneously, human DMD-patient derived muscle cells, FIG. 2) | utrophin protein levels normalized to cell density (UTR, relative units) compared to solvent-treated control (DMSO) (human DMD-patient derived muscle cells, 500 nM, FIG. 1 / FIG. 2, N=5-6, listed as CDCA)
C[C@]12CCC3c4ccc(O)cc4C=CC3C1CCC2=O (some centres unmarked) [Example 80] | 96 | 125 |  |  | 
CC(=O)C1CCC2C3C[C@@H]4O[C@@]45C[C@@H](O)CC[C@]5(C)C3CC[C@]12C (some centres unmarked) [Example 64] | 97 |  | 127 |  | 
CC(CCC(=O)O)C1CCC2C3CC(=O)[C@@H]4C[C@H](O)CC[C@]4(C)C3CC[C@]12C (some centres unmarked) [Example 5] | 108 | 136 |  |  | 
C[C@]12C[C@H](O)C3C(CC[C@@H]4C[C@H](O)CC[C@]34C)C1CCC2C(=O)CO (some centres unmarked) [Example 69] | 95 |  | 123 |  | 
C[C@]12CCC3c4ccc(OC(=O)c5ccccc5)cc4CCC3C1C[C@@H](O)[C@@H]2O (some centres unmarked) [Example 78] | 99 |  | 124 |  | 
CC(C)C/C=C\C(C)[C@H]1CC[C@@]2(C)C3=CC=C4C(C)(C)[C@@H](O)CC[C@]4(C)C3CC[C@]12C (some centres unmarked) [Example 36] | 96 |  | 122 |  | 
C[C@]12C[C@@H](O)C3C(CC[C@@H]4C[C@@H](O)CC[C@]34C)C1=CCC2C1=CC(=O)OC1 (some centres unmarked) [Example 85] | 99 |  | 120 |  | 
CC(C)CCCC(C)[C@H]1CCC2C3CC[C@H]4CC(=O)CC[C@]4(C)C3CC[C@@]21C (some centres unmarked) [Example 32] | 104 |  | 132 |  | 
CC1CC[C@@]2(OC1)O[C@H]1C[C@H]3[C@@H]4CC[C@H]5C[C@@H](OC(=O)c6ccccc6)CC[C@]5(C)C4=CC(=O)[C@]3(C)C1[C@@H]2C (some centres unmarked) [Example 20] | 113 |  | 131 |  | 
C#C[C@]1(OC(C)=O)CC[C@H]2[C@@H]3CCC4=CC(=O)CC[C@@H]4[C@H]3CC[C@@]21C [Example 42, Norethisterone acetate] | 101 | 128 |  |  | 
C[C@H](CCC(=O)O)[C@H]1CC[C@H]2[C@@H]3[C@H](O)C[C@@H]4C[C@H](O)CC[C@]4(C)[C@H]3CC[C@]12C [Example 11, 3α,7α-dihydroxy-5β-cholanic acid] | 81 |  | 172 | not inhibited | significantly increased
CC(CCC(=O)O)C1CCC2C3C(CC[C@]12C)[C@@]1(C)CC[C@@H](O)C[C@H]1C[C@@H]3O (some centres unmarked) [Example 10] | 96 |  | 121 |  | 
C[C@]12CC(=O)C3C(CC[C@H]4C[C@@H](O)CC[C@]34C)C1CCC2=O (some centres unmarked) [Example 49] | 97 |  | 127 |  | 
C[C@]12CCC3c4ccc(OCc5ccccc5)cc4CCC3C1C[C@@H](O)[C@@H]2O (some centres unmarked) [Example 72] | 105 |  | 132 |  | 
CC(=O)O[C@@]1(C(C)=O)CCC2C3C[C@H](C)C4=CC(=O)CC[C@]4(C)C3CC[C@@]21C (some centres unmarked) [Example 54] | 106 | 135 |  |  | 
CC(=O)C1CCC2C3CC[C@H]4C[C@H](O)CC[C@]4(C)C3C[C@H](O)[C@]12C (some centres unmarked) [Example 65] | 97 |  | 121 |  | 
CC1CC[C@@]2(OC1)O[C@H]1C[C@H]3[C@@H]4CC[C@H]5C[C@@H](OC(=O)c6ccccc6)CC[C@]5(C)C4=CC[C@]3(C)C1[C@@H]2C (some centres unmarked) [Example 22] | 106 |  | 123 |  | 

SMILES | % UTR vs. PDN (normalized utrophin protein as % of PDN-treated sister cultures) [1] [%] | activity at 0.5 µM [1] [%] | activity at 0.5 µM (Homo sapiens) [%] | inhibition of CDCA-mediated utrophin increase by glucocorticoid receptor antagonist RU38486 (500 nM CDCA + 500 nM RU38486 simultaneously, human DMD-patient derived muscle cells, FIG. 2) | utrophin protein levels normalized to cell density (UTR, relative units) compared to solvent-treated control (DMSO) (human DMD-patient derived muscle cells, 500 nM, FIG. 1 / FIG. 2, N=5-6, listed as CDCA)
C[C@]12C=CC(=O)C=C1CCC1C2=CC[C@]2(C)C(C(=O)CN3CCN(c4cc(N5CCCC5)nc(N5CCCC5)n4)CC3)CCC12.O=C(O)/C=C\C(=O)O (some centres unmarked) [Example 51] | 113 |  | 143 |  | 
CC(=O)[C@H]1CCC2C3CCC4=CC(=O)CC[C@]4(C)C3[C@H](O)C[C@@]21C (some centres unmarked) [Example 58] | 102 |  | 133 |  | 
CC(=O)O[C@H]1CC[C@]2(C)C3CC[C@]4(C)C(C(C)=O)=CCC4C3CC[C@H]2C1 (some centres unmarked) [Example 60] | 101 |  | 127 |  | 
CC(=O)O[C@@H]1CC[C@]2(C)C3CC[C@]4(C)C(C(C)CCC(=O)O)CCC4C3CC[C@@H]2C1 (some centres unmarked) [Example 7] | 104 |  | 121 |  | 
CC(=O)O[C@H]1CC[C@]2(C)C3C[C@@H](O)[C@]4(C)C5[C@H](C[C@H]4[C@@H]3CC[C@H]2C1)O[C@]1(CCC(C)CO1)[C@H]5C (some centres unmarked) [Example 21] | 105 |  | 130 |  | 
CC(=O)O[C@H]1CC[C@]2(C)C3C(=O)C[C@@]4(C)[C@H](C(C)CCC(=O)O)CC[C@]4(C)C3C(=O)CC2C1(C)C (some centres unmarked) [Example 14] | 92 |  | 115 |  | 
C#C[C@]1(OC(C)=O)CCC2C3CCC4=C[C@@H](OC(C)=O)CC[C@@H]4C3CC[C@@]21C (some centres unmarked) [Example 45] | 99 | 130 |  |  | 
C#C[C@]1(O)CCC2C3CCC4=CC(=O)CC[C@@H]4C3CC[C@@]21CC (some centres unmarked) [Example 41, Norgestrel] | 103 | 130 |  |  | 
C[C@]12CCC(=O)C=C1CCC1C2CC[C@]2(C)[C@@H](C(=O)O)CC[C@]12O (some centres unmarked) [Example 18] | 101 |  | 120 |  | 
CCC(=O)O[C@H]1CCC2C3CCC4=CC(=O)CC[C@]4(C)C3CC[C@@]21C (some centres unmarked) [Example 48, Testosterone propionate] | 98 |  | 122 |  | 
CC(C)CCCC(C)[C@H]1CCC2C3C(=O)C=C4C[C@@H](O)CC[C@]4(C)C3CC[C@@]21C (some centres unmarked) [Example 31] | 109 |  | 137 |  | 
C[C@]12CCC(=O)C=C1CC[C@@H]1[C@@H]2CC[C@@]2(C)[C@H]1CC[C@]2(O)C(=O)CO [Example 53, Cortexolone] | 111 | 146 |  |  | 
C[C@]12CCC3c4ccc(O)cc4CCC3C1CC[C@@H]2O (some centres unmarked) [Example 71, Estradiol] | 105 | 136 |  |  | 
C[C@]12CCC3c4ccc(OC(=O)c5ccccc5)cc4CCC3C1CCC2=O (some centres unmarked) [Example 74] | 103 |  | 124 |  | 
CC(C)=CCCC(C)[C@H]1CC[C@@]2(C)C3=C(CC[C@]12C)[C@@]1(C)CC[C@H](O)C(C)(C)C1CC3 (some centres unmarked) [Example 37, Lanosterol] | 102 |  | 123 |  | 
C[C@]12CCC3C(CC[C@]4(O)C[C@@H](O)CC[C@]34C=O)[C@@]1(O)CCC2C1=CC(=O)OC1 (some centres unmarked) [Example 82] | 101 |  | 122 |  | 
